Legend:
[1] = biological target: T1, CFTR (Homo sapiens, UniProt P13569); test: Short-circuit current in well-differentiated HBE cells, forskolin/CFTRinh-172 response; format: cell-based; settings: 25 μM pretreatment
T1 construct: endogenous in cells; host or cells: well-differentiated human bronchial epithelial (HBE) cells at air-liquid interface
Method: PAT1inh-B01 selectivity was studied by testing its effects on related SLC26A family anion transporters and the Cl^– channel TMEM16A. These measurements used a similar Cl^–/I^– exchange protocol, but FRT cells separately expressed each of the SLC26A family members or TMEM16A. […] PAT1inh-B01 selectivity was also tested by short-circuit current (Isc) in well-differentiated human bronchial epithelial (HBE) cells, which have a complex ion transport mechanism that includes cystic fibrosis transmembrane conductance regulator (CFTR), epithelial Na^+ channel (ENaC), and Ca^+2-activated chloride channels (CaCCs) ([13]). […] Potential PAT1inh-B01 cytotoxicity was studied in FRT cells.
Figure 3 PAT1inh-B01 selectivity and cytotoxicity. […] Cl^–/I^– exchange or I^– influx measured in FRT cells coexpressing YFP and SLC26A isoforms or TMEM16A, with data shown for 25 μM PAT1inh-B01, DMSO vehicle control, and 500 μM niflumic acid (positive control for SLC26A transporters) or 10 μM TMinh-23 (positive control for TMEM16A). […] (C) (left) Short-circuit current (Isc) in well-differentiated HBE cells measured in the absence (top) and presence (bottom) of 25 μM PAT1inh-B01. […]
YFP-based cellular assays of slc26a3, slc26a4, SLC26A9, and TMEM16A function were performed as described previously ([7]). […] The activities of ENaC, CFTR, and CaCC were determined using well-differentiated HBE cells as described previously ([13]). […]

[2] = biological target: T2, PAT1 (murine slc26a6) (Mus musculus, UniProt Q8CIW6); test: PAT1-mediated Cl-/HCO3- exchange, cytoplasmic pH in BCECF-loaded FRT cells; format: cell-based; settings: read-out: IC50, inhibition of Cl-/HCO3- exchange
T2 construct: host or cells: Fischer rat thyroid (FRT) cells, lentiviral transduction (pLVX-IRES-mCherry-slc26a6), clonal line FRT-YFP-slc26a6
T2 sequence (Q8CIW6 24-758 limits assumed): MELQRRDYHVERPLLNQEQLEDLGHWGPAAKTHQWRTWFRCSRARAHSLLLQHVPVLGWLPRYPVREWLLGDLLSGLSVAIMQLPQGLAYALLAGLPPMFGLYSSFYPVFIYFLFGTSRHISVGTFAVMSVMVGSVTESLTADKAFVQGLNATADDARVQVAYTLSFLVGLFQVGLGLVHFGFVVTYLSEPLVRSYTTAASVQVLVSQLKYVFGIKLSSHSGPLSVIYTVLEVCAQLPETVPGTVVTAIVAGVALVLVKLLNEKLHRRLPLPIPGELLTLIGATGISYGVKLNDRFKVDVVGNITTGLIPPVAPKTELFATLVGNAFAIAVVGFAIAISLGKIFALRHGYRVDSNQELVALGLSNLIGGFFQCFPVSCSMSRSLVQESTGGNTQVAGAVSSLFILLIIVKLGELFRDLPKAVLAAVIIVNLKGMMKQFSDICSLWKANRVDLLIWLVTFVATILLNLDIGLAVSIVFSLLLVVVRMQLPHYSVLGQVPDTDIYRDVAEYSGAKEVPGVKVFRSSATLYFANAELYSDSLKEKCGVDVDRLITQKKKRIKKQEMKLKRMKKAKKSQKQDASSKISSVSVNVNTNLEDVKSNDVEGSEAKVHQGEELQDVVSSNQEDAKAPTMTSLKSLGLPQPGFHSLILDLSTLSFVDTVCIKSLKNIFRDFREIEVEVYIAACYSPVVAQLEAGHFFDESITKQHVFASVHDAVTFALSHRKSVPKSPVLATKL
Method: As PAT1 functions as a general monovalent anion exchanger, PAT1inh-B01 inhibition was studied for different modes of anion exchange. […] To measure Cl^–/HCO3^– exchange, the time course of cytoplasmic pH was measured, using BCECF as a pH indicator, in response to a gluconate gradient to drive exchange of cytoplasmic Cl^– with extracellular HCO3^– producing cytoplasmic alkalinization (Figure 2B) as done before for DRA and pendrin ([7], [10], [11]).
YFP-based cellular assays of slc26a3, slc26a4, SLC26A9, and TMEM16A function were performed as described previously ([7]). Slc26a1 and slc26a2 assays were done in transfected HEK 293 cells (see Supplemental Methods for details). Niflumic acid was used as a positive control for SLC26A isoforms ([7]). For TMEM16A, the selective small-molecule inhibitor TMinh-23 was used as a positive control ([28]). The activities of ENaC, CFTR, and CaCC were determined using well-differentiated HBE cells as described previously ([13]). Cl^–/HCO3^– exchange was measured as described previously ([7], [10], [11]). Briefly, cell cytoplasm was labeled with the pH-sensitive fluorescent dye BCECF-AM (Invitrogen), and Cl^–/HCO3^– exchange was measured in response to addition of a gluconate-containing solution to drive exchange of cytoplasmic Cl^– for extracellular HCO3^–, producing cytoplasmic alkalinization.

T1 sequence (P13569 whole entry): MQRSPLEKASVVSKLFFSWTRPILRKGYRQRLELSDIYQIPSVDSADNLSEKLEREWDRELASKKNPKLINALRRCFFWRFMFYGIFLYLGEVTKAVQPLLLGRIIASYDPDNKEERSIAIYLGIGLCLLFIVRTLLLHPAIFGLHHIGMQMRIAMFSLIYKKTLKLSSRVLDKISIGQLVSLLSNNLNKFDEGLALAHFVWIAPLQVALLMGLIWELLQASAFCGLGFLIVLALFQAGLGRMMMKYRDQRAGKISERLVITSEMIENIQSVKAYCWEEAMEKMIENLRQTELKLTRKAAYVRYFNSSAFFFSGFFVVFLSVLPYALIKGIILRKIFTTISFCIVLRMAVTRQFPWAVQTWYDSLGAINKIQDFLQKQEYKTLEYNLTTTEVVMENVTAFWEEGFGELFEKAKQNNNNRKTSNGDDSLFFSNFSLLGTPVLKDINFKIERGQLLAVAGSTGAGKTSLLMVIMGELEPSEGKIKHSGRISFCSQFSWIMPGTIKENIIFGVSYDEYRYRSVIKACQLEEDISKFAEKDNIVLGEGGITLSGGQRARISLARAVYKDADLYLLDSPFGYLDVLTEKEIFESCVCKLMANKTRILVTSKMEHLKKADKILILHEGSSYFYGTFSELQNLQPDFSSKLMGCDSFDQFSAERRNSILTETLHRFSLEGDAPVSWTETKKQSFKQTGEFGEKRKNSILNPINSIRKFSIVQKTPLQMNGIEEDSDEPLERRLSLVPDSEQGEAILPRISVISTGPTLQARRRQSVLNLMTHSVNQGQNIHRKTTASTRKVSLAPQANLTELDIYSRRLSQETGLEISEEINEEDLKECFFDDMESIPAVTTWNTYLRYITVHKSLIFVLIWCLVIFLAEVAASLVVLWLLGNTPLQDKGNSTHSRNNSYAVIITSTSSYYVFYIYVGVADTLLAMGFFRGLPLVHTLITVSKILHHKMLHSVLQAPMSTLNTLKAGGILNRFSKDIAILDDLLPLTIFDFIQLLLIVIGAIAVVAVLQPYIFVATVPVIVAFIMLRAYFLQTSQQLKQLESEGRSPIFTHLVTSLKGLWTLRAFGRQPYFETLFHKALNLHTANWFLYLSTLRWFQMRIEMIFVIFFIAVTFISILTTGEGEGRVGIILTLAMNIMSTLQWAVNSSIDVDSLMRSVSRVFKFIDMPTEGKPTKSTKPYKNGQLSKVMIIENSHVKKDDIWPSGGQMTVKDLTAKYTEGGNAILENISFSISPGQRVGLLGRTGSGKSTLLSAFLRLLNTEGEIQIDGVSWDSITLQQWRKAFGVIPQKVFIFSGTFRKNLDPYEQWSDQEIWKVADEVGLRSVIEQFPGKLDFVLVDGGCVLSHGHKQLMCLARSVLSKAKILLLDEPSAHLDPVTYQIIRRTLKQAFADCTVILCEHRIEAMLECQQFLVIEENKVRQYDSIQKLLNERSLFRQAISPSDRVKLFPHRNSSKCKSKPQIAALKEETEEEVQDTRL

## Cc1c(Br)c(C(F)(F)F)nn1CC(=O)N1CCc2nc3cc(-c4ccccc4)[nH]n3c(=O)c2C1 [PAT1inh-B01]
[1]
  effect on CFTR activity (Isc response to forskolin/CFTRinh-172): no significant effect
[2]
  IC50: 0.29 µM

Reference: paper PMC8262356, “SLC26A6-selective inhibitor identified in a small-molecule screen blocks fluid absorption in small intestine” (JCI Insight, 2021)
